Results taken from US9920010B2, “CXCR7 receptor modulators” (IDORSIA PHARMACEUTICALS LTD, priority 2013, dated 2018).

Target: T1, CXCR7 (Homo sapiens, UniProt P25106)
T1 construct: host or cells: CHO-K1 (PathHunter CHO-K1 CXCR7 b-arrestin cell line, stably transfected)
Assay: PathHunter CHO-K1 CXCR7 b-arrestin recruitment assay (CXCR7 agonistic activity)
Assay type: cell-based
Conditions: PathHunter CHO-K1 CXCR7 b-arrestin cell line
Summary of the method: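 Stable CHO-K1 line with C-terminally ProLink-tagged CXCR7 and β-arrestin 2–EA fusion; β-arrestin recruitment restores β-gal activity, read by chemiluminescence after 1 h RT detection. Cells seeded 24 h, starved in OPTIMEM 3–4 h, exposed to compounds 90 min at 37 °C in HBSS/HEPES/BSA. Geometric-mean EC50 from repeated measurements.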

T1 sequence (P25106 whole entry): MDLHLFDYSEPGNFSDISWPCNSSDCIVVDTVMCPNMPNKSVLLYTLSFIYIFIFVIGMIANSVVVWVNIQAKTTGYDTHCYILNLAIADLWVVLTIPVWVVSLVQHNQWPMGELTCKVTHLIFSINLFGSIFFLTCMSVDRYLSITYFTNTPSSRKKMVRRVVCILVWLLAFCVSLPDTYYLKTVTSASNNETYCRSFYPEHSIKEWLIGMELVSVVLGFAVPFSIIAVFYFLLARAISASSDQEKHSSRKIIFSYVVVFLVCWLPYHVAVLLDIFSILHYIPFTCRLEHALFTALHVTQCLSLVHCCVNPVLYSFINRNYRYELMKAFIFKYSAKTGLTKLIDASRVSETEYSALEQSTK
T1 sequence (P32121 whole entry partner): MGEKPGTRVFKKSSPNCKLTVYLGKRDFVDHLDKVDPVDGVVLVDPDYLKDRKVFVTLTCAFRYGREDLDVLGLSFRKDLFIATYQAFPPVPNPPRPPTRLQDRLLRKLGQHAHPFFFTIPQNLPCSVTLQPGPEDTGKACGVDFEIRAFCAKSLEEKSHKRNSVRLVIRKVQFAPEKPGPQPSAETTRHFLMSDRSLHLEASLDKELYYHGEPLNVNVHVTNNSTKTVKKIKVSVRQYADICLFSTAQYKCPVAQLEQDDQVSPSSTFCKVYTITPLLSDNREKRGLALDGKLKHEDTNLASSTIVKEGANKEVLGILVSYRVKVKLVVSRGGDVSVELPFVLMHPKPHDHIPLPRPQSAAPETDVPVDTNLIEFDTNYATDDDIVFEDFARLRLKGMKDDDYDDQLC

EC50 [nM]	Structure (SMILES)
12	C=CCN1CCc2c(CCC(=O)N(CCN(C)C)Cc3ccccc3C(F)(F)F)cccc2C1 [Example 349, 3-(2-Allyl-1,2,3,4-tetrahydro-isoquinolin-5-yl)-N-(2-dimethylamino-ethyl)-N-(2-trifluoromethyl-benzyl)-propionamide]
4	CN(C)CCN(Cc1ccccc1C(F)(F)F)C(=O)CNc1cccc2c1CCN(C1CCC1)C2 [Example 352, 2-(2-Cyclobutyl-1,2,3,4-tetrahydro-isoquinolin-5-ylamino)-N-(2-dimethylamino-ethyl)-N-(2-trifluoromethyl-benzyl)-acetamide]
85	CN(C)CCN(Cc1ccccc1C(F)(F)F)C(=O)CNc1cccc2c1CCN(C1COC1)C2 [Example 353, N-(2-Dimethylamino-ethyl)-2-(2-oxetan-3-yl-1,2,3,4-tetrahydro-isoquinolin-5-ylamino)-N-(2-trifluoromethyl-benzyl)-acetamide]
4	CC(C1CC1)N1CCc2c(cccc2NCC(=O)N(CCN(C)C)Cc2ccccc2C(F)(F)F)C1 (stereo not shown) [Example 357, 2-[2-(1-Cyclopropyl-ethyl)-1,2,3,4-tetrahydro-isoquinolin-5-ylamino]-N-(2-dimethylamino-ethyl)-N-(2-trifluoromethyl-benzyl)-acetamide]
26	CN(C)CCN(Cc1ccccc1C(F)(F)F)C(=O)CNc1cccc2c1CCN(CC1(C)COC1)C2 [Example 358, N-(2-Dimethylamino-ethyl)-2-[2-(3-methyl-oxetan-3-ylmethyl)-1,2,3,4-tetrahydro-isoquinolin-5-ylamino]-N-(2-trifluoromethyl-benzyl)-acetamide]
9	COCCN1CCc2c(cccc2NCC(=O)N(CCN(C)C)Cc2ccccc2C(F)(F)F)C1 [Example 359, N-(2-(dimethylamino)ethyl)-2-((2-(2-methoxyethyl)-1,2,3,4-tetrahydroisoquinolin-5-yl)amino)-N-(2-(trifluoromethyl)benzyl)acetamide]
30	COC(=O)CN1CCc2c(cccc2NCC(=O)N(CCN(C)C)Cc2ccccc2C(F)(F)F)C1 [Example 360, [5-({[(2-Dimethylamino-ethyl)-(2-trifluoromethyl-benzyl)-carbamoyl]-methyl}-amino)-3,4-dihydro-1H-isoquinolin-2-yl]-acetic acid methyl ester]
6	CN(C)CCN(Cc1ccccc1C(F)(F)F)C(=O)CNc1cccc2c1CCN(CC1CCC1)C2 [Example 361, 2-(2-Cyclobutylmethyl-1,2,3,4-tetrahydro-isoquinolin-5-ylamino)-N-(2-dimethylamino-ethyl)-N-(2-trifluoromethyl-benzyl)-acetamide]
21	CN(C)CCN(Cc1ccccc1C(F)(F)F)C(=O)CNc1cccc2c1CCN(C(=O)C(C)(F)F)C2 [Example 362, 2-[2-(2,2-Difluoro-propionyl)-1,2,3,4-tetrahydro-isoquinolin-5-ylamino]-N-(2-dimethylamino-ethyl)-N-(2-trifluoromethyl-benzyl)-acetamide]
44	CN(C)CCN(Cc1ccccc1C(F)(F)F)C(=O)CNc1cccc2c1CCN(CC#N)C2 [Example 364, 2-(2-Cyanomethyl-1,2,3,4-tetrahydro-isoquinolin-5-ylamino)-N-(2-dimethylamino-ethyl)-N-(2-trifluoromethyl-benzyl)-acetamide]
2	CN(C)CCN(Cc1ncccc1C(F)(F)F)C(=O)CNc1cccc2c1CCN(C1CCC1)C2 [Example 366, 2-(2-Cyclobutyl-1,2,3,4-tetrahydro-isoquinolin-5-ylamino)-N-(2-dimethylamino-ethyl)-N-(3-trifluoromethyl-pyridin-2-ylmethyl)-acetamide]
115	CN(C)CCN(Cc1ncccc1C(F)(F)F)C(=O)CNc1cccc2c1CCN(C1COC1)C2 [Example 367, N-(2-Dimethylamino-ethyl)-2-(2-oxetan-3-yl-1,2,3,4-tetrahydro-isoquinolin-5-ylamino)-N-(3-trifluoromethyl-pyridin-2-ylmethyl)-acetamide]
3	CN(C)CCN(Cc1ncccc1C(F)(F)F)C(=O)CNc1cccc2c1CCN(CC1CCC1)C2 [Example 368, 2-(2-Cyclobutylmethyl-1,2,3,4-tetrahydro-isoquinolin-5-ylamino)-N-(2-dimethylamino-ethyl)-N-(3-trifluoromethyl-pyridin-2-ylmethyl)-acetamide]
92	CCOC(=O)CN1CCc2c(cccc2NCC(=O)N(CCN(C)C)Cc2ncccc2C(F)(F)F)C1 [Example 369, [5-({[(2-Dimethylamino-ethyl)-(3-trifluoromethyl-pyridin-2-ylmethyl)-carbamoyl]-methyl}-amino)-3,4-dihydro-1H-isoquinolin-2-yl]-acetic acid ethyl ester]
40	COC(=O)CN1CCc2c(cccc2NCC(=O)N(CCN(C)C)Cc2ncccc2C(F)(F)F)C1 [Example 370, [5-({[(2-Dimethylamino-ethyl)-(3-trifluoromethyl-pyridin-2-ylmethyl)-carbamoyl]-methyl}-amino)-3,4-dihydro-1H-isoquinolin-2-yl]-acetic acid methyl ester]
16	COCCN1CCc2c(cccc2NCC(=O)N(CCN(C)C)Cc2ncccc2C(F)(F)F)C1 [Example 371, N-(2-Dimethylamino-ethyl)-2-[2-(2-methoxy-ethyl)-1,2,3,4-tetrahydro-isoquinolin-5-ylamino]-N-(3-trifluoromethyl-pyridin-2-ylmethyl)-acetamide]
67	CN(C)CCN(Cc1ccccc1C(F)(F)F)C(=O)CNc1cccc2c1CCN(c1ccccc1)C2 [Example 373, N-(2-Dimethylamino-ethyl)-2-(2-phenyl-1,2,3,4-tetrahydro-isoquinolin-5-ylamino)-N-(2-trifluoromethyl-benzyl)-acetamide]
5	CN(C)CCN(Cc1ccccc1C(F)(F)F)C(=O)CNc1cccc2c1CCN(c1ccccn1)C2 [Example 374, N-(2-Dimethylamino-ethyl)-2-(2-pyridin-2-yl-1,2,3,4-tetrahydro-isoquinolin-5-ylamino)-N-(2-trifluoromethyl-benzyl)-acetamide]
6	CN(C)CCN(Cc1ccccc1C(F)(F)F)C(=O)CNc1cccc2c1CCN(c1ncccn1)C2 [Example 375, N-(2-Dimethylamino-ethyl)-2-(2-pyrimidin-2-yl-1,2,3,4-tetrahydro-isoquinolin-5-ylamino)-N-(2-trifluoromethyl-benzyl)-acetamide]
27	CN(C)CCN(Cc1ccccc1C(F)(F)F)C(=O)CNc1cccc2c1CCN(c1nc(C(F)(F)F)cs1)C2 [Example 376, N-(2-Dimethylamino-ethyl)-N-(2-trifluoromethyl-benzyl)-2-[2-(4-trifluoromethyl-thiazol-2-yl)-1,2,3,4-tetrahydro-isoquinolin-5-ylamino]-acetamide]
7	CNCCN(Cc1ccccc1C(F)(F)F)C(=O)CNc1cccc2c1CCN(C(=O)C1CC1)C2 [Example 385, 2-(2-Cyclopropanecarbonyl-1,2,3,4-tetrahydro-isoquinolin-5-ylamino)-N-(2-methylamino-ethyl)-N-(2-trifluoromethyl-benzyl)-acetamide]
20	O=C(CNc1cccc2c1CCN(CC1CC1)C2)N(CCNCC(F)(F)F)Cc1ccccc1C(F)(F)F [Example 434, 2-(2-Cyclopropylmethyl-1,2,3,4-tetrahydro-isoquinolin-5-ylamino)-N-[2-(2,2,2-trifluoro-ethylamino)-ethyl]-N-(2-trifluoromethyl-benzyl)-acetamide]
